In US20230270877A1, “Combination Therapy” (Seagen Inc., priority 2020, published 2023):
Square brackets hold non-standard residues; d marks the D form. Peptide text beside a SMILES is read from it. * marks the point of attachment. Dolaproine = CO[C@@H]([C@@H]1CCCN1)[C@@H](C)C(=O)O; Dil = CC[C@H](C)[C@H](NC)[C@@H](CC(=O)O)OC; X1 = C[C@@H](N*)[C@@H](O)c1ccccc1; NMeV = CN[C@H](C(=O)O)C(C)C

Experiments:
A20 lymphoma cells = assay: Immunization with killed CD30-expressing A20 cells and A20 challenge (Example 24); format: in vivo; conditions: mice immunized 2 times with cells killed by the agent; compared to flash freezing; FIG. 24
Protocol: A20 cells expressing human CD30 were treated with CD30-Auristatin ADC (BV; SGN-35) or MMAE for 18 hrs. Alternatively, one aliquot of cells was f1ash frozen. Ficoll centrifugation of treated samples was performed to remove live cells. All samples were analyzed for apoptosis and viability by flow cytometry using annexin V/7AAD. Dying and dead cells were washed, resuspended in PBS, and intraperitoneally injected into mice. The mice were immunized 2 times, 7 days apart. Immunized mice rested for 7 additional days, and then were challenged with A20 lymphoma cells, and tumor growth or rejection was monitored over time.

CD40 = CD40 (Homo sapiens, UniProt P25942); conditions: cited from earlier work
[1] = test system: acute myeloid leukemia (AML); conditions: administered alone; cited from earlier work
Farage cells = format: in vivo; conditions: single agent, SEA-CD70 3 mg/kg or SGN-35 1 mg/kg
CD30+CD8 T cells = assay: Proliferation of activated CD30+CD8 T cells treated with CD30 directed vc-MMAE; format: cell-based, human; conditions: anti-CD3-CD28 beads + 10 ng/mL IL-2, 4 days; vs isotype control; FIG. 2
Protocol: Human primary CD8 T cells were labeled with CSFE and induced to undergo proliferation with anti-CD3-CD28 beads (1 bead per 4 T cells)+10 ng/mL IL-2 for 4 days. […] CD30+CD8 T cells were treated with either CD30 directed vc-MMAE (brentuximab vedotin; BV; SGN-35) or an isotype control. Cells were stained with LIVE/DEAD Fixable Dead Cell Stain (ThermoFisher) and live cells were counted via flow cytometry.

Sequence of CD40 (P25942 21-277): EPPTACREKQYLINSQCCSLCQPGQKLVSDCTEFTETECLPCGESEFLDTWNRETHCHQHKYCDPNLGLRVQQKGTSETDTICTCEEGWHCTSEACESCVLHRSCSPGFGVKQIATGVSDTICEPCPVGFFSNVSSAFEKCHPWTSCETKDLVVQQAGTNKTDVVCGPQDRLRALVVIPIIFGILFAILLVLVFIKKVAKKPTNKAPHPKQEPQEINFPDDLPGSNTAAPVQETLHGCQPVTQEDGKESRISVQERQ

## CC[C@H](C)[C@@H]([C@@H](CC(=O)N1CCC[C@H]1[C@H](OC)[C@@H](C)C(=O)N[C@H](C)[C@@H](O)c1ccccc1)OC)N(C)C(=O)[C@@H](NC(=O)[C@@H](NC)C(C)C)C(C)C [MMAE, N-methylvaline-valine-dolaisoleuine-dolaproine-norephedrine] (H-[NMeV]V[Dil][Dolaproine]-X1)
A20 lymphoma cells
  immune responses rejecting implanted A20 cells: stronger immune responses

## CP-870,893: a humanized IgG2 agonist antibody to CD40
CD40; combined with paclitaxel or carboplatin or gemcitabine
  activity in solid tumor indications: encouraging activity

## CT-011: anti-PD-1 antibody, a humanized antibody
[1]
  response in treating acute myeloid leukemia (AML) at relapse: failed to show response

## Dacetuzumab: fucosylated humanized S2C6, agonistic CD40 monoclonal antibody
CD40; phase 1 study in NHL and phase 2 study in DLBCL
  clinical activity: some clinical activity

## SGN-35: CD30-targeting ADC containing MMAE conjugated to the monoclonal antibody cAC10 [reference compound]
A20 lymphoma cells
  immune responses rejecting implanted A20 cells: stronger immune responses
Farage cells; day post implant, untreated 28.5
  day at which tumors reached an average 5 fold increase of original size: 46 days
Farage cells; untreated 9.5
  days post treatment at which tumors reached an average 5 fold increase: 27 days post treatment
CD30+CD8 T cells
  cell proliferation of primary human CD30+CD8 T cells: not significantly altered
